Patent US12559506B2, “Indazole based compounds and associated methods of use” (Arvinas Operations, Inc., priority 2021, dated 2026)
Like-named read-outs stand apart in the source and are kept apart here.

Tests used:
Type in all cases: cell-based
[1] = target: T1, G2019S LRRK2 (Homo sapiens, UniProt Q5S007, G2019S); assay: LRRK2 degradation assay, HiBit-tagged G2019S LRRK2 expressed from plasmid in HEK293 cells (Nano-Glo Dual-Luciferase); details: 24 hours
T1 construct: expressed in transfected cells; host or cells: HEK293 (ATCC CRL-1573), transient transfection, mammalian expression vector with ubiquitin promoter
T1 sequence (Q5S007 whole entry G2019S): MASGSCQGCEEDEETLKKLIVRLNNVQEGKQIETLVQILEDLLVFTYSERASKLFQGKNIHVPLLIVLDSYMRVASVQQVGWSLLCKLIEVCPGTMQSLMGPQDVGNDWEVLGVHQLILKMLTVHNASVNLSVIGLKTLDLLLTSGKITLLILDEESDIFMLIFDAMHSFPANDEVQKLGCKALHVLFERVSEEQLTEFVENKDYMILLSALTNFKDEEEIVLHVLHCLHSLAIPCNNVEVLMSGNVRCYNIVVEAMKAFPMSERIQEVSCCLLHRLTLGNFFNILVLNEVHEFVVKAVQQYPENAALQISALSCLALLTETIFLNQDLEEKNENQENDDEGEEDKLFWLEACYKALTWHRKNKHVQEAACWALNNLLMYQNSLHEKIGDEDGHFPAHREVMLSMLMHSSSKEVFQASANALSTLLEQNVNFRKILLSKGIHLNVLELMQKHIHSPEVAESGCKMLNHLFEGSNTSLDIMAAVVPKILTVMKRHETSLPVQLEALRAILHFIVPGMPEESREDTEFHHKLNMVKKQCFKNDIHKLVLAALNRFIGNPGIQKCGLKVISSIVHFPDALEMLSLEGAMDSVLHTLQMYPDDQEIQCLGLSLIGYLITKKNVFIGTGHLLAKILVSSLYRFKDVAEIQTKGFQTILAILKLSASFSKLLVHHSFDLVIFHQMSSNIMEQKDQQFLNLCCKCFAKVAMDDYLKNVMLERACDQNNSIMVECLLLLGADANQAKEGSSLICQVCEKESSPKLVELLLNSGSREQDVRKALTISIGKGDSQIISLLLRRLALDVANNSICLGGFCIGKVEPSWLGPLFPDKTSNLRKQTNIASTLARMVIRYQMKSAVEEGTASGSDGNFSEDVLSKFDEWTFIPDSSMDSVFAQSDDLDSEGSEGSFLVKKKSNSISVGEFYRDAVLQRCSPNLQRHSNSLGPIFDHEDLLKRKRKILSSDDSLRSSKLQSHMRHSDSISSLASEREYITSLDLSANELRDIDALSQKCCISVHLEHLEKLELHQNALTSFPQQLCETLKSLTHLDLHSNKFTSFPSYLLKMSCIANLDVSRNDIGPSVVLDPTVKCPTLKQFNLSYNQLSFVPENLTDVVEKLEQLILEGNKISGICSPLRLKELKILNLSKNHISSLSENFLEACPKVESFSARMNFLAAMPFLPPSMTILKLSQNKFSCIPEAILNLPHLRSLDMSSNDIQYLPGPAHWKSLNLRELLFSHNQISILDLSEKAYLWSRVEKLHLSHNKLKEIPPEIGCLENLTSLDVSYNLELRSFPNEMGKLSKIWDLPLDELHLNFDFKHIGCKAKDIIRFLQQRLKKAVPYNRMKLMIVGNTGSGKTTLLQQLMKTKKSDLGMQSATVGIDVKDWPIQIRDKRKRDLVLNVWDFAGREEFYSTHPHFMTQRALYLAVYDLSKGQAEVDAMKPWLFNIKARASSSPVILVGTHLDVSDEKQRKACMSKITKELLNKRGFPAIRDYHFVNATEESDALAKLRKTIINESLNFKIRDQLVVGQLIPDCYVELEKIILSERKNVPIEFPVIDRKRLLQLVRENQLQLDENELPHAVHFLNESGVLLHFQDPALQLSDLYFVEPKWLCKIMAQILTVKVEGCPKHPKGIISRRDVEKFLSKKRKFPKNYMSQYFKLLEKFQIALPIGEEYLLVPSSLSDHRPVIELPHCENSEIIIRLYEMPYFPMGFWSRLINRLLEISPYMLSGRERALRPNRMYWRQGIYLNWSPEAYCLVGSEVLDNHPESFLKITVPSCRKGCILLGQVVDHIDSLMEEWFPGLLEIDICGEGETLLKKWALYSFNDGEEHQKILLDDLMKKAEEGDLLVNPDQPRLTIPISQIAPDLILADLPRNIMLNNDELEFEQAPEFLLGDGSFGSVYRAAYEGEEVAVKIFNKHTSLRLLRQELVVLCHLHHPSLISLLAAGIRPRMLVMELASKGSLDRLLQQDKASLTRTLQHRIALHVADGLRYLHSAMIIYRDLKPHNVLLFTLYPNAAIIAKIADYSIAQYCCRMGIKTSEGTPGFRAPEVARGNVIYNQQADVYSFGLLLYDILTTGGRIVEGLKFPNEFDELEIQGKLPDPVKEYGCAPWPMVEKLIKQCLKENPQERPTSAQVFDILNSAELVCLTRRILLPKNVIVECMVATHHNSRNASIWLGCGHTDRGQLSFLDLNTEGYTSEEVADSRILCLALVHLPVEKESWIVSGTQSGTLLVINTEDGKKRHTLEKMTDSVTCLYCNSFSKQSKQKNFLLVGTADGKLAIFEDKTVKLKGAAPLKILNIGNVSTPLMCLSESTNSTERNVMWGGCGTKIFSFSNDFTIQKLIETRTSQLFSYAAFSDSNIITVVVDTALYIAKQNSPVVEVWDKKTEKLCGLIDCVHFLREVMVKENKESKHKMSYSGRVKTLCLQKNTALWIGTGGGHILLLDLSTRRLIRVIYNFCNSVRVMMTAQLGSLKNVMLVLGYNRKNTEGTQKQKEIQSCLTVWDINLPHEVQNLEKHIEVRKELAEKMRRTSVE
In short: (§1)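 Degradation read as Nano-Glo HiBiT signal over firefly luciferase (cell number/viability) after 24 h compound exposure of transiently transfected HEK293 expressing C-terminally HiBiT-tagged wildtype or G2019S LRRK2. Data as % DMSO; DC50/Dmax fitted per plate, triplicate plates repeated twice.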

[2] = target: T2, wildtype LRRK2 (Homo sapiens, UniProt Q5S007); assay: LRRK2 degradation assay, HiBit-tagged wildtype LRRK2 expressed from plasmid in HEK293 cells (Nano-Glo Dual-Luciferase); details: 24 hours; for Dmax: read-out: **WT Dmax (%); for DC50: read-out: *WT DC50
T2 construct: expressed in transfected cells; host or cells: HEK293 (ATCC CRL-1573), transient transfection, mammalian expression vector with ubiquitin promoter
T2 sequence (Q5S007 whole entry): as the sequence (Q5S007 whole entry G2019S) above, with S2019G counted along it
In short: as §1

[3] = target: T3, LRRK2 (endogenous, HiBit tagged) (Homo sapiens, UniProt Q5S007); assay: Endogenous LRRK2 degradation assay, endogenous gene C-terminally HiBit-tagged in HEK293 cells (Nano-Glo Dual Luciferase); details: 24 hours; for Dmax: read-out: **Endogenous WT Dmax (%); for DC50: read-out: *Endogenous WT DC50
T3 construct: endogenous in cells; host or cells: HEK293 cells with HiBit knock-in at the endogenous LRRK2 locus, stably expressing firefly luciferase
T3 sequence (Q5S007 whole entry): as the sequence (Q5S007 whole entry G2019S) above, with S2019G counted along it
In short: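 LRRK2-HiBit quantified via Nano-Glo Dual Luciferase in HEK293 knock-in cells co-expressing firefly luciferase, after 24 h exposure to compound (1 μM final top, 1:3, 11 points). Values normalised to DMSO median per plate and curve-fitted; Alamar Blue viability run alongside.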

[4] = HiBit-tagged G2019S LRRK2 in HEK293 cells
[5] = HiBit-tagged wildtype LRRK2 in HEK293 cells
[6] = endogenous HiBit-tagged LRRK2 in HEK293 cells
[7] = HiBit-tagged G2019S LRRK2, HEK293 cells
[8] = HiBit-tagged wildtype LRRK2, HEK293 cells
[9] = endogenous HiBit-tagged LRRK2, HEK293 cells

SMILES | DC50 [1, 4] [µM] | Dmax [1, 4] [%] | Dmax [2, 5] [%] | DC50 [2, 5] [µM] | Dmax [3, 6] [%] | DC50 [3, 6] [µM] | DC50 [1, 7] [µM] | Dmax [1, 7] [%] | Dmax [2, 8] [%] | DC50 [2, 8] [µM] | Dmax [3, 9] [%] | DC50 [3, 9] [µM]
CC1(Oc2ccc3n[nH]c(-c4cc(N5CCC(CN6CCN(CC7CCN(c8ccc9c(c8)CN(C8CCC(=O)NC8=O)C9=O)CC7)CC6)CC5)ncn4)c3c2)CC1 (centres unmarked) [Compound 112, 3-[5-[4-[[4-[[1-[6-[5-(1-methylcyclopropoxy)-2H-indazol-3-yl]pyrimidin-4-yl]-4-piperidyl]methyl]piperazin-1-yl]methyl]-1-piperidyl]-1-oxo-isoindolin-2-yl]piperidine-2,6-dione] | < 0.01 | ≥ 70 | ≥ 70 | < 0.01 | ≥ 70 | < 0.01 |  |  |  |  |  | 
CC1(Oc2ccc3n[nH]c(-c4cc(N5CC(OC6CCN(CC7CCN(c8ccc9c(c8)C(=O)N(C8CCC(=O)NC8=O)C9=O)CC7)CC6)C5)ncn4)c3c2)CC1 (centres unmarked) [Compound 130, 2-(2,6-dioxo-3-piperidyl)-5-[4-[[4-[1-[6-[5-(1-methylcyclopropoxy)-2H-indazol-3-yl]pyrimidin-4-yl]azetidin-3-yl]oxy-1-piperidyl]methyl]-1-piperidyl]isoindoline-1,3-dione] | < 0.01 | 50 to 70 | 50 to 70 | < 0.01 | ≥ 70 | < 0.01 |  |  |  |  |  | 
CC1(Oc2ccc3n[nH]c(-c4cc(N5CC(F)(CN6CCN(CC7CCN(c8ccc9c(c8)C(=O)N(C8CCC(=O)NC8=O)C9=O)CC7)CC6)C5)ncn4)c3c2)CC1 (centres unmarked) [Compound 131, 2-(2,6-dioxo-3-piperidyl)-5-[4-[[4-[[3-fluoro-1-[6-[5-(1-methylcyclopropoxy)-2H-indazol-3-yl]pyrimidin-4-yl]azetidin-3-yl]methyl]piperazin-1-yl]methyl]-1-piperidyl]isoindoline-1,3-dione] | < 0.01 | ≥ 70 | ≥ 70 | < 0.01 | ≥ 70 | < 0.01 |  |  |  |  |  | 
CC1(Oc2ccc3[nH]nc(-c4ccnc(N5CC(F)(CN6CCN(CC7CCN(c8ccc9c(c8)C(=O)N(C8CCC(=O)NC8=O)C9=O)CC7)CC6)C5)c4)c3c2)CC1 (centres unmarked) [Compound 132, 2-(2,6-dioxopiperidin-3-yl)-5-[4-({4-[(3-fluoro-1-{4-[5-(1-methylcyclopropoxy)-1H-indazol-3-yl]pyridin-2-yl}azetidin-3-yl)methyl]piperazin-1-yl}methyl)piperidin-1-yl]-2,3-dihydro-1H-isoindole-1,3-dione] | < 0.01 | 50 to 70 | 50 to 70 | < 0.01 | ≥ 70 | < 0.01 |  |  |  |  |  | 
C[C@H]1CN(c2cc(-c3[nH]nc4ccc(OC5(C)CC5)cc34)ncn2)CCN1CC1CCN(CC2CCN(c3cccc4c3C(=O)N(C3CCC(=O)NC3=O)C4=O)CC2)CC1 (stereo partly drawn) [Compound 137, 2-(2,6-dioxo-3-piperidyl)-4-[4-[[4-[[(2S)-2-methyl-4-[6-[5-(1-methylcyclopropoxy)-2H-indazol-3-yl]pyrimidin-4-yl]piperazin-1-yl]methyl]-1-piperidyl]methyl]-1-piperidyl]isoindoline-1,3-dione] | < 0.01 | ≥ 70 | ≥ 70 | < 0.01 | ≥ 70 | 0.01 to 0.05 |  |  |  |  |  | 
CC1(Oc2ccc3[nH]nc(-c4ccnc(N5CC(CC6CCN(CC7CCN(c8ccc9c(c8)C(=O)N(C8CCC(=O)NC8=O)C9=O)CC7)CC6)C5)c4)c3c2)CC1 (centres unmarked) [Compound 160, 2-(2,6-dioxo-3-piperidyl)-5-[4-[[4-[[1-[4-[5-(1-methylcyclopropoxy)-1H-indazol-3-yl]-2-pyridyl]azetidin-3-yl]methyl]-1-piperidyl]methyl]-1-piperidyl]isoindoline-1,3-dione] |  |  |  |  |  |  | < 0.01 | 50 to 70 | 50 to 70 | < 0.01 | ≥ 70 | < 0.01
CC1(Oc2ccc3[nH]nc(-c4cc(N5CCC(CN6CC7(CCN7CC7CCN(c8ccc9c(c8)C(=O)N(C8CCC(=O)NC8=O)C9=O)CC7)C6)CC5)ncn4)c3c2)CC1 (centres unmarked) [Compound 176, 2-(2,6-dioxo-3-piperidyl)-5-[4-[[6-[[1-[6-[5-(1-methylcyclopropoxy)-1H-indazol-3-yl]pyrimidin-4-yl]-4-piperidyl]methyl]-1,6-diazaspiro[3.3]heptan-1-yl]methyl]-1-piperidyl]isoindoline-1,3-dione] |  |  |  |  |  |  | < 0.01 | < 50 | 50 to 70 | < 0.01 |  | 
CC1(Oc2ccc3n[nH]c(-c4cc(N5CCN(CC6CC7(CCN(CC8CCN(c9ccc%10c(c9)C(=O)N(C9CCC(=O)NC9=O)C%10=O)CC8)CC7)C6)CC5)ncn4)c3c2)CC1 (centres unmarked) [Compound 177, 2-(2,6-dioxo-3-piperidyl)-5-[4-[[2-[[4-[6-[5-(1-methylcyclopropoxy)-2H-indazol-3-yl]pyrimidin-4-yl]piperazin-1-yl]methyl]-7-azaspiro[3.5]nonan-7-yl]methyl]-1-piperidyl]isoindoline-1,3-dione] |  |  |  |  |  |  | 0.01 to 0.05 | 50 to 70 | 50 to 70 | 0.01 to 0.05 |  | 

The next lines start with the values.

DC50 [1, 4] [µM] | Dmax [1, 4] [%] | Dmax [2, 5] [%] | DC50 [2, 5] [µM] | Dmax [3, 6] [%] | DC50 [3, 6] [µM] | DC50 [1, 7] [µM] | Dmax [1, 7] [%] | Dmax [2, 8] [%] | DC50 [2, 8] [µM] | Dmax [3, 9] [%] | DC50 [3, 9] [µM] | SMILES
< 0.01 | 50 to 70 | 50 to 70 | < 0.01 | 50 to 70 | < 0.01 |  |  |  |  |  |  | CC1(Oc2ccc3[nH]nc(-c4cc(N5CCN(C[C@H]6CC(=O)N(CC7CCN(c8ccc9c(c8)C(=O)N(C8CCC(=O)NC8=O)C9=O)CC7)C6)CC5)ncn4)c3c2)CC1 (single isomer, unassigned) [Compound 120]
< 0.01 | 50 to 70 | 50 to 70 | < 0.01 | ≥ 70 | < 0.01 |  |  |  |  |  |  | CC1(Oc2ccc3[nH]nc(-c4cc(N5CCN(C[C@@H]6CC(=O)N(CC7CCN(c8ccc9c(c8)C(=O)N(C8CCC(=O)NC8=O)C9=O)CC7)C6)CC5)ncn4)c3c2)CC1 (single isomer, unassigned) [Compound 121]
< 0.01 | 50 to 70 | 50 to 70 | < 0.01 | ≥ 70 | 0.01 to 0.05 |  |  |  |  |  |  | C[C@H]1CN(c2cc(-c3n[nH]c4ccc(OC5(C)CC5)cc34)ncn2)CCN1CCC1(F)CCN(CC2CCN(c3ccc4c(c3)C(=O)N(C3CCC(=O)NC3=O)C4=O)CC2)CC1 (stereo partly drawn) [Compound 52, 2-(2,6-dioxo-3-piperidyl)-5-[4-[[4-fluoro-4-[2-[(2S)-2-methyl-4-[6-[5-(1-methylcyclopropoxy)-1H-indazol-3-yl]pyrimidin-4-yl]piperazin-1-yl]ethyl]-1-piperidyl]methyl]-1-piperidyl]isoindoline-1,3-dione]
< 0.01 | ≥ 70 | ≥ 70 | < 0.01 | ≥ 70 | < 0.01 |  |  |  |  |  |  | CC1(Oc2ccc3n[nH]c(-c4cc(N5CCC(COC6CCN(CC7CCN(c8ccc9c(c8)C(=O)N(C8CCC(=O)NC8=O)C9=O)CC7)CC6)CC5)ncn4)c3c2)CC1 (centres unmarked) [Compound 61, 2-(2,6-dioxo-3-piperidyl)-5-[4-[[4-[[1-[6-[5-(1-methylcyclopropoxy)-2H-indazol-3-yl]pyrimidin-4-yl]-4-piperidyl]methoxy]-1-piperidyl]methyl]-1-piperidyl]isoindoline-1,3-dione]
< 0.01 | ≥ 70 | ≥ 70 | < 0.01 | ≥ 70 | < 0.01 |  |  |  |  |  |  | C[C@H]1CN(c2cc(-c3[nH]nc4ccc(OC5(C)CC5)cc34)ncn2)CCN1CCC1(F)CCN(CC2CCN(c3ccc4c(c3)CN(C3CCC(=O)NC3=O)C4=O)CC2)CC1 (stereo partly drawn) [Compound 64, 3-[5-[4-[[4-fluoro-4-[2-[(2S)-2-methyl-4-[6-[5-(1-methylcyclopropoxy)-2H-indazol-3-yl]pyrimidin-4-yl]piperazin-1-yl]ethyl]-1-piperidyl]methyl]-1-piperidyl]-1-oxo-isoindolin-2-yl]piperidine-2,6-dione]
< 0.01 | ≥ 70 | ≥ 70 | < 0.01 | ≥ 70 | < 0.01 |  |  |  |  |  |  | CC1(Oc2ccc3n[nH]c(-c4cc(N5CCC(CN6CCN(CC7CCN(c8ccc9c(c8)C(=O)N(C8CCC(=O)NC8=O)C9=O)CC7)CC6)CC5)ncn4)c3c2)CC1 (centres unmarked) [Compound 68, 2-(2,6-dioxo-3-piperidyl)-5-[4-[[4-[[1-[6-[5-(1-methylcyclopropoxy)-2H-indazol-3-yl]pyrimidin-4-yl]-4-piperidyl]methyl]piperazin-1-yl]methyl]-1-piperidyl]isoindoline-1,3-dione]
< 0.01 | < 50 | < 50 | < 0.01 | 50 to 70 | < 0.01 |  |  |  |  |  |  | C[C@H]1CN(c2cc(-c3n[nH]c4ccc(OC5(C)CC5)cc34)ncn2)CCN1CC1(F)CCN(CC2CCN(c3ccc4c(c3)C(=O)N(C3CCC(=O)NC3=O)C4=O)CC2)CC1 (stereo partly drawn) [Compound 69, 2-(2,6-dioxo-3-piperidyl)-5-[4-[[4-fluoro-4-[[(2S)-2-methyl-4-[6-[5-(1-methylcyclopropoxy)-1H-indazol-3-yl]pyrimidin-4-yl]piperazin-1-yl]methyl]-1-piperidyl]methyl]-1-piperidyl]isoindoline-1,3-dione]
